In patent publication US20180346988A1, “ZNF532 FOR DIAGNOSIS AND TREATMENT OF CANCER” (THE BRIGHAM AND WOMEN'S HOSPITAL, INC., priority 2015, published 2018):

Tests used:
Format in all cases: cell-based, human
24335 cells = assay: Differentiation and proliferation of ZNF532-NUT+ 24335 NMC cells (involucrin/keratin expression, H&E); details: BET inhibitor treatment
Procedure: FIGS. 8A-8B describe experimental data showing differentiation of ZNF532-NUT+24335 cells in response to NUT knockdown or BET inhibitor.
(FIG. 10A) Immunoblot of involucrin expression, a marker of squamous differentiation. (FIG. 10B) H&E showing differentiation as evidenced by formation of cohesive spherical clusters, and marked accumulation of cytoplasm. (FIG. 10C) 500 nM JQ1 BET inhibitor was administered. Dose-response to JQ1 measured by cell titer glo. (FIG. 10D) Effects of ZNF532 and NUT knock down on number of mitoses quantified by immunohistochemistry using anti-histone H3phospho-serine antibody.
The importance of ZNF532 in NMC was underscored by simultaneous discovery of a patient with pulmonary NMC (FIG. 5A) harboring a ZNF532-NUT fusion gene, that was identified by whole transcriptome RNAsequencing (FIG. 5B), and confirmed by cytogenetics, fluorescence in situ hybridization (FISH), RT-PCR, western blotting, and immunofluorescence (FIGS. 5C-5F, 6). The fusion gene is comprised of exon 3 of ZNF532 fused to intron 1 of NUT (FIG. 7). The resulting predicted 1500 amino acid protein includes the N-terminal 778 amino acids of ZNF532, encoding only the first two of eleven zinc fingers and a large unstructured domain, part of intron 1 of NUT, and its remaining exons 2-7 (FIGS. 8A-8B). […]

ZNF532 locus = assay: Nascent RNA-seq of transcription at the ZNF532 locus in NMC cell lines; details: NMC cell lines 797 and 1015, in the presence of JQ1
Description: Transcription is seen in two of the NMC cell lines, 797 and 1015, and is shown to diminish in the presence of JQ1.

PVT1 RNA = assay: RNA-seq at the MYC locus (PVT1 lncRNA) in 24335 cells; details: JQ1 administered for 4 h prior to RNA collection
Procedure: (FIG. 11A) Localization of ZNF532-NUT and effects on transcription at the MYC locus based on ChIP-seq and RNA-seq. JQ1 was administered for 4 h prior to RNA collection.
Morphologic differentiation is evidenced by accumulation of abundant cytoplasm, enlargement of nuclei and cytoplasm, and formation of cohesive spheres. […] It has been shown that an important function of ZNF532-NUT is to maintain expression of MYC. […] One such megadomain occupies a region proximal to MYC (FIG. 11A). […] Consistent with its role in MYC upregulation, knockdown of ZNF532-NUT leads to decreased MYC protein levels (FIG. 11B).

Cc1sc2c(c1C)C(c1ccc(Cl)cc1)=N[C@@H](CC(=O)OC(C)(C)C)c1nnc(C)n1-2 [JQ1, (S)-tert-butyl 2-(4-(4-chlorophenyl)-2,3,9-trimethyl-6H-thieno[3,2-f][1,2,4]triazolo[4,3-a][1,4]diazepin-6-yl)acetate]
differentiation of 24335 cells (expression of involucrin, marker of terminal squamous differentiation) (24335 cells): results in differentiation
transcription at the ZNF532 locus (ZNF532 locus): diminish
expression of the PVT1 RNA (PVT1 RNA): decreased expression
